ChEMBL document CHEMBL1139131, “Lead optimization of 5,6-diarylpyridines as CB1 receptor inverse agonists” (Bioorg Med Chem Lett, 2007)
pIC50: −log10 of the molar value.

How the values were obtained:
Cannabinoid receptor 2 = Cannabinoid receptor 2 (Homo sapiens, UniProt P34972)
Description: Binding affinity at CB2 receptor

in vivo [1] = details: Sprague-Dawley, rat
Description: Bioavailability in Sprague-Dawley rat

in vivo [2] = details: Sprague-Dawley, rat; remark: listed apart in the source
Description: Plasma clearance in Sprague-Dawley rat

in vivo [3] = details: Sprague-Dawley, rat; remark: listed apart in the source
Description: Half life in Sprague-Dawley rat

in vivo [4] = details: Sprague-Dawley, rat; remark: listed apart in the source
Description: Volume of distribution in Sprague-Dawley rat

in vivo [5] = details: Sprague-Dawley, rat, brain, iv
Description: Ratio of drug level in brain to plasma in iv dosed Sprague-Dawley rat after 0.25 hr

in vivo [6] = details: Sprague-Dawley, rat, brain, iv; remark: listed apart in the source
Description: Ratio of drug level in brain to plasma in iv dosed Sprague-Dawley rat after 4 hrs

Sequence of Cannabinoid receptor 2 (P34972 whole entry): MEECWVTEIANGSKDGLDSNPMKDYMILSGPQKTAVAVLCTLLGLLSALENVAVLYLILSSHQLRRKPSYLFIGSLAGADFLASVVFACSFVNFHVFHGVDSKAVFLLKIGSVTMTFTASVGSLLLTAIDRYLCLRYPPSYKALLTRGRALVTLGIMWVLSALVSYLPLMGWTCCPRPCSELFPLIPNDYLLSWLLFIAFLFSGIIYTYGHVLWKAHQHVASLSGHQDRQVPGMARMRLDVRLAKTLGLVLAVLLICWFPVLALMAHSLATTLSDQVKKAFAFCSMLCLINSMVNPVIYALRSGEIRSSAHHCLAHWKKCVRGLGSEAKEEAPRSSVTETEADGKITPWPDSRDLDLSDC

| pIC50 (Cannabinoid receptor 2) | Structure (SMILES) | further results |
| --- | --- | --- |
| 5.36 | N#Cc1cc(-c2ccc(Cl)cc2)c(-c2ccc(Cl)cc2Cl)nc1Oc1ccc(F)cc1 |  |
| 5.96 | CC(C)(C)C(=O)N1CCN(c2nc(-c3ccccc3Cl)c(-c3ccc(Cl)cc3)cc2C#N)CC1 |  |
| 6.15 | CC(C)N1CCN(c2nc(-c3ccccc3Cl)c(-c3ccc(Cl)cc3)cc2C#N)C(=O)C1=O |  |
| 5.39 | N#Cc1cc(-c2ccc(Cl)cc2)c(-c2ccc(Cl)cc2Cl)nc1Oc1cccc(Cl)c1 |  |
| 5.39 | N#Cc1cc(-c2ccc(Cl)cc2)c(-c2ccc(Cl)cc2Cl)nc1Oc1ccc(F)c(F)c1 | bioavailability (in vivo [1]): 66%; clearance (in vivo [2]): 3.5 mL/min/kg; half-life (in vivo [3]): 5.6 h; Vd (in vivo [4]): 1.5 L/kg; Kp at […] (in vivo [5]): 0.1; Kp at 4 h (in vivo [6]): 0.61 |
| 5.68 | CC(C)(C)C#Cc1nc(-c2ccccc2Cl)c(-c2ccc(Cl)cc2)cc1C#N |  |
| 5.74 | CC(C)(O)C#Cc1nc(-c2ccccc2Cl)c(-c2ccc(Cl)cc2)cc1C#N |  |
| 5.96 | CCC(N)(C#Cc1nc(-c2ccccc2Cl)c(-c2ccc(Cl)cc2)cc1C#N)CC |  |
| 6.49 | N#Cc1cc(-c2ccc(Cl)cc2)c(-c2ccc(Cl)cc2Cl)nc1Oc1cc(F)cc(F)c1 |  |
| 5.28 | N#Cc1cc(-c2ccc(Cl)cc2)c(-c2ccc(Cl)cc2Cl)nc1Sc1ccc(F)cc1 |  |
| 5.43 | N#Cc1cc(-c2ccc(Cl)cc2)c(-c2ccccc2Cl)nc1-c1cccnc1 |  |
| 5.48 | Cn1cc(-c2nc(-c3ccccc3Cl)c(-c3ccc(Cl)cc3)cc2C#N)cn1 |  |
| 5.55 | N#Cc1cc(-c2ccc(Cl)cc2)c(-c2ccc(Cl)cc2Cl)nc1Nc1ccc(F)cc1 |  |
| 5.80 | CC(C)NC(=O)c1cc(-c2ccc(Cl)cc2)c(-c2ccc(Cl)cc2Cl)nc1Oc1ccc(F)c(F)c1 |  |
| 5.74 | CN(C)NC(=O)c1cc(-c2ccc(Cl)cc2)c(-c2ccc(Cl)cc2Cl)nc1Oc1ccc(F)c(F)c1 | bioavailability (in vivo [1]): 26%; clearance (in vivo [2]): 24 mL/min/kg; half-life (in vivo [3]): 4.1 h; Vd (in vivo [4]): 6.7 L/kg; Kp at […] (in vivo [5]): 1.2; Kp at 4 h (in vivo [6]): 3 |
| 6.51 | N#Cc1cc(-c2ccc(Cl)cc2)c(-c2ccc(Cl)cc2Cl)nc1-n1ccnc1 |  |
| 5.77 | CC(C)(C)C(=O)Nc1nc(-c2ccc(Cl)cc2Cl)c(-c2ccc(Cl)cc2)cc1C#N |  |
| 5.40 | N#Cc1cc(-c2ccc(Cl)cc2)c(-c2ccc(Cl)cc2Cl)nc1N1CCCCC1 |  |
| 6.14 | N#Cc1cc(-c2ccc(Cl)cc2)c(-c2ccc(Cl)cc2Cl)nc1OC1CCOC1 (configuration not stated) |  |
| 5.38 | N#Cc1cc(-c2ccc(Cl)cc2)c(-c2ccc(Cl)cc2Cl)nc1Oc1ccc(Cl)cc1 |  |
| 5.74 | CC(C)CNc1nc(-c2ccc(Cl)cc2Cl)c(-c2ccc(Cl)cc2)cc1C#N |  |
| 6.07 | CC(C)Oc1nc(-c2ccc(Cl)cc2Cl)c(-c2ccc(Cl)cc2)cc1C#N |  |
| 5.37 | N#Cc1cc(-c2ccc(Cl)cc2)c(-c2ccccc2Cl)nc1-c1cncnc1 |  |
| 5.85 | N#Cc1cc(-c2ccc(Cl)cc2)c(-c2ccccc2Cl)nc1N1CCN(S(=O)(=O)c2cc(F)cc(F)c2)CC1 |  |
| 6.33 | N#Cc1cc(-c2ccc(Cl)cc2)c(-c2ccc(Cl)cc2Cl)nc1-n1nnc2ccccc21 |  |
| 6.37 | N#Cc1cc(-c2ccc(Cl)cc2)c(-c2ccc(Cl)cc2Cl)nc1OCC1CCOC1 (configuration not stated) |  |
| 5.59 | CC(C)(C)N1CCN(c2nc(-c3ccccc3Cl)c(-c3ccc(Cl)cc3)cc2C#N)CC1 |  |
| 6.50 | N#Cc1cc(-c2ccc(Cl)cc2)c(-c2ccc(Cl)cc2Cl)nc1NC(=O)c1ccc(F)c(F)c1 |  |
| 6.19 | CNN(C)C(=O)c1cc(-c2ccc(Cl)cc2)c(-c2ccc(Cl)cc2Cl)nc1Oc1ccc(F)c(F)c1 |  |

| Structure (SMILES) | pIC50 (Cannabinoid receptor 2) | further results |
| --- | --- | --- |
| COc1ccc(Oc2nc(-c3ccc(Cl)cc3Cl)c(-c3ccc(Cl)cc3)cc2C#N)cc1 | 5.42 |  |
| N#Cc1cc(-c2ccc(Cl)cc2)c(-c2ccccc2Cl)nc1Oc1ccc(F)c(F)c1 | 5.24 |  |
| N#Cc1cc(-c2ccc(Cl)cc2)c(-c2ccc(Cl)cc2Cl)nc1OCCNC(=O)C1CCC1 | 6.35 |  |
| N#Cc1cc(-c2ccc(Cl)cc2)c(-c2ccc(Cl)cc2Cl)nc1Oc1cccc(F)c1 | 5.64 |  |
| N#Cc1cc(-c2ccc(Cl)cc2)c(-c2ccc(Cl)cc2Cl)nc1Oc1cc(Cl)cc(Cl)c1 | 5.25 |  |
| NC(=O)c1cc(-c2ccc(Cl)cc2)c(-c2ccc(Cl)cc2Cl)nc1Oc1ccc(F)c(F)c1 | 5.31 |  |
